# System: MKL-1 (VP-MCC) cells
# Test: Differential growth inhibition/cytotoxicity assay (CellTiterGlo/XTT), MKL-1
# Conditions: Homo sapiens, MKL-1, 72 h, read-out: IC50 (ave ± sd)
smiles,measurement,value
CC1(C)CCC(c2ccc(Cl)cc2)=C(CN2CCN(c3ccc(C(=O)NS(=O)(=O)c4ccc(N[C@H](CCN5CCOCC5)CSc5ccccc5)c(S(=O)(=O)C(F)(F)F)c4)cc3)CC2)C1 [Navitoclax],IC50,200 ± 29 nM

# Reference: PMC8245553, “Identification of natural product modulators of Merkel cell carcinoma cell growth and survival” (Scientific Reports, 2021)
